Experimental data reported in ChEMBL document CHEMBL5365539, “Selective modifications of lactose and N-acetyllactosamine with sulfate and aromatic bulky groups unveil unique structural insights in galectin-1-ligand recognition” (Bioorg Med Chem, 2023).
pIC50, pKd: −log10 of the molar value.

Experiments:
[1] = biological target: T1, Galectin-1 (Homo sapiens, UniProt P09382); assay: Inhibition of asialofetuin binding to human recombinant Gal-1 transfected in Escherichia coli BL21 (DE3) incubated for 2 hrs by competitive solid-phase assay
T1 sequence (P09382 whole entry): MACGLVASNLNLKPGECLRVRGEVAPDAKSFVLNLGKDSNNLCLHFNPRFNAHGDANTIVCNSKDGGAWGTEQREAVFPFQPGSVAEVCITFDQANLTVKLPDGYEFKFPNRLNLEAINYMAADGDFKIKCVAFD

[2] = biological target: T1, Galectin-1; assay: Potency index, ratio of test compound IC50 to (2S,3R,4S,5R,6R)-2-(((2R,3S,4R,5R,6R)-4,5 dihydroxy-2-(hydroxymethyl)-6 methoxytetrahydro-2H-pyran-3-yl)oxy)-6(hydroxymethyl)tetrahydro-2H-pyran-3,4,5-triol IC50 for inhibition of asialofetuin binding to human recombinant Gal-1 transfected in Escherichia coli BL21 (DE3) incubated for 2 hrs by competitive solid-phase assay
[3] = biological target: T1, Galectin-1; assay: Binding affinity to human recombinant Gal-1 assessed as association constant by ITC analysis
[4] = biological target: T1, Galectin-1; assay: Binding affinity to human recombinant Gal-1 assessed as change in enthalpy by ITC analysis
[5] = biological target: T1, Galectin-1; assay: Binding affinity to human recombinant Gal-1 assessed as dissociation constant by ITC analysis
[6] = biological target: T1, Galectin-1; assay: Binding affinity to human recombinant Gal-1 assessed as gibbs free energy change by ITC analysis
[7] = biological target: T1, Galectin-1; assay: Binding affinity to human recombinant Gal-1 assessed as change in entropy by ITC analysis

| Structure (SMILES) | pIC50 [1] | Ratio IC50 [2] | Ka [3] | deltaH [4] [kJ/mol] | pKd [5] | deltaG [6] [kJ/mol] | deltaS [7] [J/mol.K] |
| --- | --- | --- | --- | --- | --- | --- | --- |
| CC(=O)N[C@H]1[C@H](Oc2ccc([N+](=O)[O-])cc2)O[C@H](CO)[C@@H](O[C@@H]2O[C@H](CO)[C@H](O)[C@H](O)[C@H]2O)[C@@H]1O | 2.24 | 0.78 |  |  |  |  |  |
| C#CCO[C@@H]1O[C@H](CO)[C@@H](O[C@@H]2O[C@H](CO)[C@H](O)[C@H](OS(=O)(=O)O)[C@H]2O)[C@H](O)[C@H]1NC(C)=O | 2.32 | 0.65 |  |  |  |  |  |
| C#CCO[C@@H]1O[C@H](CO)[C@@H](O[C@@H]2O[C@H](CO)[C@H](O)[C@H](O)[C@H]2O)[C@H](O)[C@H]1NC(C)=O | 1.97 | 1.45 |  |  |  |  |  |
| COC(=O)c1ccc(O[C@@H]2O[C@H](CO)[C@@H](O[C@@H]3O[C@H](CO)[C@H](O)[C@H](O)[C@H]3O)[C@H](O)[C@H]2O)c(OC)c1 | 2.12 | 1.02 |  |  |  |  |  |
| C#CCO[C@@H]1O[C@H](CO)[C@@H](O[C@@H]2O[C@H](CO)[C@H](O)[C@H](OCC(=O)O)[C@H]2O)[C@H](O)[C@H]1NC(C)=O | 2.14 | 0.99 |  |  |  |  |  |
| CO[C@@H]1O[C@H](CO)[C@@H](O[C@@H]2O[C@H](CO)[C@H](O)[C@H](O)[C@H]2O)[C@H](O)[C@H]1O | 2.13 |  |  |  |  |  |  |
| COc1cc(CO)ccc1O[C@@H]1O[C@H](CO)[C@@H](O[C@@H]2O[C@H](CO)[C@H](O)[C@H](O)[C@H]2O)[C@H](O)[C@H]1O | 1.97 | 1.46 |  |  |  |  |  |
| CC(=O)N[C@H]1C(O)O[C@H](CO)[C@@H](O[C@@H]2O[C@H](CO)[C@H](O)[C@H](O)[C@H]2O)[C@@H]1O (stereo not given in full) | 2.12 | 1.02 |  |  |  |  |  |
| COc1cc(C(=O)OC(C)(C)C)ccc1O[C@@H]1O[C@H](CO)[C@@H](O[C@@H]2O[C@H](CO)[C@H](O)[C@H](O)[C@H]2O)[C@H](O)[C@H]1O | 2.44 | 0.48 | 4.9 10^3/M | -27.9 | 3.69 | -21 | -23.1 |
| O=[N+]([O-])c1ccc(O[C@@H]2O[C@H](CO)[C@@H](O[C@@H]3O[C@H](CO)[C@H](O)[C@H](OS(=O)(=O)O)[C@H]3O)[C@H](O)[C@H]2O)cc1 | 2.23 | 0.79 |  |  |  |  |  |
| CC(=O)N[C@H]1[C@H](Oc2ccc([N+](=O)[O-])cc2)O[C@H](CO)[C@@H](O[C@@H]2O[C@H](CO)[C@H](O)[C@H](OS(=O)(=O)O)[C@H]2O)[C@@H]1O | 2.21 | 0.83 |  |  |  |  |  |
| COc1cc(/C=C/C(=O)O)ccc1O[C@@H]1O[C@H](CO)[C@@H](O[C@@H]2O[C@H](CO)[C@H](O)[C@H](O)[C@H]2O)[C@H](O)[C@H]1O | 2.32 | 0.65 |  |  |  |  |  |
| O=[N+]([O-])c1ccc(O[C@@H]2O[C@H](CO)[C@@H](O[C@@H]3O[C@H](CO)[C@H](O)[C@H](O)[C@H]3O)[C@H](O)[C@H]2O)cc1 | 2.18 | 0.89 |  |  |  |  |  |
| C#CCO[C@@H]1O[C@H](CO)[C@@H](O[C@@H]2O[C@H](CO)[C@H](O)[C@H](O)[C@H]2O)[C@H](O)[C@H]1O | 2.21 | 0.83 |  |  |  |  |  |
| OC[C@H]1O[C@@H](O[C@H]2[C@H](O)[C@@H](O)C(O)O[C@@H]2CO)[C@H](O)[C@@H](O)[C@H]1O (stereo not given in full) |  |  | 3.2 10^3/M | -28.4 |  |  | -28 |
| COc1cc(C(=O)OC(C)(C)C)ccc1O[C@@H]1O[C@H](CO)[C@@H](O[C@@H]2O[C@H](CO)[C@H](O)[C@H](OS(=O)(=O)O)[C@H]2O)[C@H](O)[C@H]1O | 2.49 | 0.43 | 8.6 10^3/M | -29 | 3.93 | -22.5 | -21.3 |
| C#CCO[C@@H]1O[C@H](CO)[C@@H](O[C@@H]2O[C@H](CO)[C@H](O)[C@H](O[C@]3(C(=O)O)C[C@H](O)[C@@H](NC(C)=O)[C@H]([C@@H](O)[C@H](O)CO)O3)[C@H]2O)[C@H](O)[C@H]1NC(C)=O | 2.01 | 1.31 |  |  |  |  |  |
| COc1cc(CCC(=O)O)ccc1O[C@@H]1O[C@H](CO)[C@@H](O[C@@H]2O[C@H](CO)[C@H](O)[C@H](O)[C@H]2O)[C@H](O)[C@H]1O | 2.39 | 0.56 |  |  |  |  |  |
| COc1cc(C(=O)O)ccc1O[C@@H]1O[C@H](CO)[C@@H](O[C@@H]2O[C@H](CO)[C@H](O)[C@H](OS(=O)(=O)O)[C@H]2O)[C@H](O)[C@H]1O | 2.41 | 0.53 | 3.5 10^3/M | -22.1 | 3.55 | -20.2 | -6.2 |
| COc1cc(C=O)ccc1O[C@@H]1O[C@H](CO)[C@@H](O[C@@H]2O[C@H](CO)[C@H](O)[C@H](OS(=O)(=O)O)[C@H]2O)[C@H](O)[C@H]1O | 2.21 | 0.82 |  |  |  |  |  |
